Source: PubChem BioAssay (NCI)
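Dose response: 5 concentrations. Exposure: 48 h. Format: 96-well plates. Endpoint: linear interpolation; highest concentration if not reached. Definition used: TGI = concentration required for complete inhibition of growth.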

How the values were obtained:
Test in all cases: NCI tumour cell line growth inhibition, 48 h
[1] = test system: RXF 393 renal
[2] = test system: SNB-78 CNS
[3] = test system: K-562 leukemia
[4] = test system: EKVX NSCLC
[5] = test system: UACC-62 melanoma
[6] = test system: SW-620 colon
[7] = test system: HT29 colon
[8] = test system: NCI-H522 lung
[9] = test system: UACC-257 melanoma
[10] = test system: ACHN renal
[11] = test system: SR leukemia
[12] = test system: SF-295 CNS
[13] = test system: OVCAR-4 ovarian
[14] = test system: LOX IMVI melanoma
[15] = test system: M14 melanoma
[16] = test system: NCI-H460 lung
[17] = test system: HL-60(TB) leukemia
[18] = test system: HOP-62 NSCLC
[19] = test system: SF-268 CNS
[20] = test system: 786-0 renal
[21] = test system: HCT-116 colon
[22] = test system: DMS 114 small cell lung
[23] = test system: OVCAR-5 ovarian
[24] = test system: SF-539 CNS
[25] = test system: SK-MEL-28 melanoma
[26] = test system: KM12 colon
[27] = test system: SN12C renal
[28] = test system: SNB-19 CNS
[29] = test system: SNB-75 CNS
[30] = test system: CAKI-1 renal
[31] = test system: HOP-18 NSCLC
[32] = test system: DLD-1 colon
[33] = test system: KM20L2 colon
[34] = test system: NCI-H23 lung
[35] = test system: OVCAR-8 ovarian
[36] = test system: MOLT-4 leukemia
[37] = test system: UO-31 renal
[38] = test system: IGROV1 ovarian
[39] = test system: LXFL 529 NSCLC
[40] = test system: CCRF-CEM leukemia
[41] = test system: OVCAR-3 ovarian
[42] = test system: COLO 205 colon
[43] = test system: DMS 273 small cell lung
[44] = test system: SK-MEL-2 melanoma
[45] = test system: RPMI-8226 leukemia
[46] = test system: HCC-2998 colon
[47] = test system: TK-10 renal
[48] = test system: U251 CNS
[49] = test system: A549 NSCLC
[50] = test system: SK-OV-3 ovarian
[51] = test system: SK-MEL-5 melanoma
[52] = test system: HOP-92 NSCLC
[53] = test system: NCI-H226 lung
[54] = test system: XF 498 CNS
[55] = test system: RXF-631 renal
[56] = test system: MALME-3M melanoma
[57] = test system: HCT-15 colon
[58] = test system: M19-MEL melanoma

Measured: TGI

NC(=O)/N=C1/CCC2C3CCCC2C13
not listed: [55] | [56] | [57] | [58]
> 100 µM: all other assays above

CC(Nc1ccc(S(=O)(=O)N=C(N)N)cc1)c1c2ccccc2nc2ccccc12 (stereo not drawn)
76.8 µM: [35]
36.1 µM: [54]
31.3 µM: [13]
73.6 µM: [50]
60.5 µM: [40]
> 10 µM: [5] | [21] | [41]
55.5 µM: [52]
39.2 µM: [17]
81 µM: [30]
80.6 µM: [39]
82.7 µM: [46]
99.4 µM: [3]
88.9 µM: [34]
48.1 µM: [36]
85.3 µM: [1]
96.6 µM: [55]
83.8 µM: [16]
38 µM: [8]
63.4 µM: [24]
79.7 µM: [29]
65.7 µM: [11]
61.9 µM: [44]
97.6 µM: [9]
80.4 µM: [53]
55.2 µM: [45]
65.6 µM: [56] | [37]
not listed: [2] | [18] | [31] | [51]
> 100 µM: all other assays above
